Test results published in patent publication US8530623B2, “Proteasome-activating lightening peptides and compositions containing same” (ISP Investments Inc., priority 2009, dated 2013).
Where no end group is shown, it is not given here.

System: melanin present in the epidermis of human skin samples
Assay: Depigmenting effect ex vivo on human skin biopsies (Fontana-Masson melanin staining)
Type: cell-based
Details: 2 applications per day
Description: 6 mm diameter biopsies are taken from human skin samples. These biopsies are maintained in ex vivo survival in the presence of a specific medium (DMEM 1 g/L, HAMF12, SVF and antibiotics) on inserts deposited in 6-well plates. The biopsies are then pretreated for 24 hours with the active principle at 3% concentration at a rate of 2 applications per day. Other skin samples will not be pretreated with the active principle and will be used as the control condition. Subsequently, the biopsies are subjected to UVB irradiation at a rate of 100 mJ/cm^2. The pretreated biopsies are again treated for 24 hours with the active principle at 3% concentration at a rate of 2 applications per day. After this second treatment, a quantitative evaluation of the quantity of melanin present in the epidermis of skin samples is carried out histologically, with an optical microscope, after staining according to the Fontana-Masson method.
To do this, the skin biopsies are enclosed in paraffin and histological sections with a thickness of 4 μm are made. These sections are then stained by the Fontana-Masson technique: The paraffin is removed from the slides; the slides being hydrated and then treated with a silver ammonium hydroxide solution. […]

Asp-Cys-Arg-NH2 [SEQ ID No. 2]
melanin level (pigmentation level) in the epidermis, absence of UVB irradiation (active principle at 3% concentration, 24 hours, no UVB, vs untreated skin, optical microscope): reduces the melanin level
melanin synthesis induced by UVB irradiation (pigmentation level after UVB) (pretreated 24 hours at 3%, UVB 100 mJ/cm^2, treated again 24 hours, vs untreated control): very distinctly reduced
